Data on two compounds can be found in patent US6576261B1, “Potentiation of inclusion complex formation of cyclodextrin derivatives” (priority 1999, dated 2003).

Where two headings read alike, the source gives them in different places.

Type in all cases: physicochemical
Data set [1] is described as follows: Solubility of TRIMEA and DIMEB and complex formation between the two hosts in absence of a guest. The protocol:
TRIMEA and DIMEB dissolve in water more than 33 g per 100 ml of water. The solubilities of both these compounds in water can be decreased by the addition of salts or by an increase of temperature. Thus, in aqueous solution of sodium sulfate (1 M), TRIMEA dissolved to the saturation concentration just of 0.4 mg/ml and DIMEB to 3.4 mg/ml. […] If a 1:1 complex between TRIMEA and DIMEB is assumed to form, the association constant of 700 [1/M] can be estimated for that complex, which is of the same order of magnitude as association constants of many complexes formed of guests and cyclodextrins.

Data set [2] is described as follows: Preparation and stabilization of colloidal compositions of calcium fluoride. Conditions: alone or in combination with TRIMEA; precipitation from calcium chloride and sodium fluoride.
Data set [3] addresses insulin (Homo sapiens, UniProt P01308). In words: Stabilization and solubilization of insulin by highly methylated cyclodextrins. Conditions: cyclodextrins at 2 or 4% in phosphate buffered solution, insulin 1 mg/ml, final pH less than 6.

Chain of insulin (P01308 25-54 limits assumed, species assumed): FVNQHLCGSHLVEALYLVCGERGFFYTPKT
Chain of insulin (P01308 90-110 limits assumed, species assumed): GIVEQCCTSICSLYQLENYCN

Compound `COC[C@H]1O[C@@H]2O[C@H]3[C@H](O)[C@@H](OC)[C@@H](O[C@H]4[C@H](O)[C@@H](OC)[C@@H](O[C@H]5[C@H](O)[C@@H](OC)[C@@H](O[C@H]6[C@H](O)[C@@H](OC)[C@@H](O[C@H]7[C@H](O)[C@@H](OC)[C@@H](O[C@H]8[C@H](O)[C@@H](OC)[C@@H](O[C@H]1[C@H](O)[C@H]2OC)O[C@@H]8COC)O[C@@H]7COC)O[C@@H]6COC)O[C@@H]5COC)O[C@@H]4COC)O[C@@H]3COC` [DIMEB] registered a saturation concentration in data set [1] (aqueous solution of sodium sulfate (1 M)) of 3.4 mg/mL. In data set [2], the “preparation and stabilization of colloidal compositions of calcium fluoride” value is “effective”.

Consider `COC[C@H]1O[C@@H]2O[C@@H]3[C@@H](OC)[C@@H](OC)[C@@H](O[C@@H]4[C@@H](OC)[C@@H](OC)[C@@H](O[C@@H]5[C@@H](OC)[C@@H](OC)[C@@H](O[C@@H]6[C@@H](OC)[C@@H](OC)[C@@H](O[C@@H]7[C@@H](OC)[C@@H](OC)[C@@H](O[C@@H]1[C@@H](OC)[C@H]2OC)O[C@@H]7COC)O[C@@H]6COC)O[C@@H]5COC)O[C@@H]4COC)O[C@@H]3COC` [TRIMEA], for which, in data set [1], the saturation concentration stood at 0.4 mg/mL. In addition, the “stabilizer of the dissolved insulin” value in data set [3] was “more effective stabilizer of the dissolved insulin than DIMEB or TRIMEB”.
